# Literature values as cited in patent US11957648B2, “Method of initiating or escalating dofetilide dose and formulations therefor” (Academic Pharmaceuticals, Inc., priority 2018, dated 2024).
# How the values were obtained:
# QTc interval = conditions: slope of plasma concentration vs QTc; Sedgwick et al; cited from earlier work
# [1] = oral dosing; cited from earlier work
smiles,measurement,setting,value
"CN(CCOc1ccc(NS(C)(=O)=O)cc1)CCc1ccc(NS(C)(=O)=O)cc1 [Dofetilide, β-((p-methanesulfonamidophenethyl)methylamino)methanesulfono-p-phenetidide]",QTc change per dofetilide plasma concentration,QTc interval,15 to 25 ms/ng/mL
same,time to reach steady state concentration,[1],at least 3 days
